Experimental data reported in PubChem BioAssay (NCI).
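Each compound was tested at five concentrations against cells in 96-well plates for 48 hours. At the GI50, growth is halved. TGI: total growth inhibition.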

Columns and labels:
Assay in all cases: NCI tumour cell line growth inhibition, 48 h
786-0 renal = tested on: 786-0 renal
A498 renal = tested on: A498 renal
A549 NSCLC = tested on: A549 NSCLC
ACHN renal = tested on: ACHN renal
BT-549 breast = tested on: BT-549 breast
CAKI-1 renal = tested on: CAKI-1 renal
CCRF-CEM leukemia = tested on: CCRF-CEM leukemia
COLO 205 colon = tested on: COLO 205 colon
DU-145 prostate = tested on: DU-145 prostate
EKVX NSCLC = tested on: EKVX NSCLC
HCC-2998 colon = tested on: HCC-2998 colon
HCT-116 colon = tested on: HCT-116 colon
HCT-15 colon = tested on: HCT-15 colon
HL-60(TB) leukemia = tested on: HL-60(TB) leukemia
HOP-62 NSCLC = tested on: HOP-62 NSCLC
HOP-92 NSCLC = tested on: HOP-92 NSCLC
HS 578T breast = tested on: HS 578T breast
HT29 colon = tested on: HT29 colon
IGROV1 ovarian = tested on: IGROV1 ovarian
K-562 leukemia = tested on: K-562 leukemia
KM12 colon = tested on: KM12 colon
LOX IMVI melanoma = tested on: LOX IMVI melanoma
M14 melanoma = tested on: M14 melanoma
MALME-3M melanoma = tested on: MALME-3M melanoma
MCF7 breast = tested on: MCF7 breast
MDA-MB-231 breast = tested on: MDA-MB-231 breast
MDA-MB-435 = tested on: MDA-MB-435
MOLT-4 leukemia = tested on: MOLT-4 leukemia
NCI-H226 lung = tested on: NCI-H226 lung
NCI-H23 lung = tested on: NCI-H23 lung
NCI-H460 lung = tested on: NCI-H460 lung
NCI-H522 lung = tested on: NCI-H522 lung
NCI/ADR-RES ovarian = tested on: NCI/ADR-RES ovarian
OVCAR-3 ovarian = tested on: OVCAR-3 ovarian
OVCAR-4 ovarian = tested on: OVCAR-4 ovarian
OVCAR-5 ovarian = tested on: OVCAR-5 ovarian
OVCAR-8 ovarian = tested on: OVCAR-8 ovarian
PC-3 prostate = tested on: PC-3 prostate
RPMI-8226 leukemia = tested on: RPMI-8226 leukemia
SF-268 CNS = tested on: SF-268 CNS
SF-295 CNS = tested on: SF-295 CNS
SF-539 CNS = tested on: SF-539 CNS
SK-MEL-2 melanoma = tested on: SK-MEL-2 melanoma
SK-MEL-28 melanoma = tested on: SK-MEL-28 melanoma
SK-MEL-5 melanoma = tested on: SK-MEL-5 melanoma
SK-OV-3 ovarian = tested on: SK-OV-3 ovarian
SN12C renal = tested on: SN12C renal
SNB-19 CNS = tested on: SNB-19 CNS
SNB-75 CNS = tested on: SNB-75 CNS
SR leukemia = tested on: SR leukemia
SW-620 colon = tested on: SW-620 colon
T-47D breast = tested on: T-47D breast
TK-10 renal = tested on: TK-10 renal
U251 CNS = tested on: U251 CNS
UACC-257 melanoma = tested on: UACC-257 melanoma
UACC-62 melanoma = tested on: UACC-62 melanoma
UO-31 renal = tested on: UO-31 renal

COc1ccc2sc(NC(=O)CCCCCCNC(=O)C(O)(O)C(F)(F)F)nc2c1
GI50 (786-0 renal): 1080 nM
TGI (786-0 renal): > 30300 nM
GI50 (A498 renal): 901 nM
TGI (A498 renal): 6470 nM
GI50 (A549 NSCLC): 1860 nM
TGI (A549 NSCLC): 18400 nM
GI50 (ACHN renal): 1180 nM
TGI (ACHN renal): 6580 nM
GI50 (BT-549 breast): 1500 nM
TGI (BT-549 breast): 18900 nM
GI50 (CAKI-1 renal): 1830 nM
TGI (CAKI-1 renal): 14700 nM
GI50 (CCRF-CEM leukemia): 1340 nM
TGI (CCRF-CEM leukemia): > 30300 nM
GI50 (COLO 205 colon): 920 nM
TGI (COLO 205 colon): 3650 nM
GI50 (DU-145 prostate): 1010 nM
TGI (DU-145 prostate): 14000 nM
GI50 (EKVX NSCLC): 2330 nM
TGI (EKVX NSCLC): > 30300 nM
GI50 (HCC-2998 colon): 2150 nM
TGI (HCC-2998 colon): 7560 nM
GI50 (HCT-116 colon): 754 nM
TGI (HCT-116 colon): > 30300 nM
GI50 (HCT-15 colon): 3570 nM
TGI (HCT-15 colon): 10100 nM
GI50 (HL-60(TB) leukemia): 1060 nM
TGI (HL-60(TB) leukemia): > 30300 nM
GI50 (HOP-62 NSCLC): 1330 nM
TGI (HOP-62 NSCLC): > 30300 nM
GI50 (HOP-92 NSCLC): 649 nM
TGI (HOP-92 NSCLC): 2470 nM
GI50 (HS 578T breast): 969 nM
TGI (HS 578T breast): 9910 nM
GI50 (HT29 colon): 912 nM
TGI (HT29 colon): > 30300 nM
GI50 (IGROV1 ovarian): 1830 nM
TGI (IGROV1 ovarian): 7730 nM
GI50 (K-562 leukemia): 882 nM
TGI (K-562 leukemia): > 30300 nM
GI50 (KM12 colon): 1290 nM
TGI (KM12 colon): 7400 nM
GI50 (LOX IMVI melanoma): 1380 nM
TGI (LOX IMVI melanoma): 5420 nM
GI50 (M14 melanoma): 2070 nM
TGI (M14 melanoma): > 30300 nM
GI50 (MALME-3M melanoma): 1040 nM
TGI (MALME-3M melanoma): 12000 nM
GI50 (MCF7 breast): 1750 nM
TGI (MCF7 breast): > 30300 nM
GI50 (MDA-MB-231 breast): 680 nM
TGI (MDA-MB-231 breast): 2240 nM
GI50 (MDA-MB-435): 1030 nM
TGI (MDA-MB-435): 6000 nM
GI50 (MOLT-4 leukemia): 1070 nM
TGI (MOLT-4 leukemia): > 30300 nM
GI50 (NCI-H226 lung): 4940 nM
TGI (NCI-H226 lung): 22600 nM
GI50 (NCI-H23 lung): 2830 nM
TGI (NCI-H23 lung): 21700 nM
GI50 (NCI-H460 lung): 877 nM
TGI (NCI-H460 lung): 13500 nM
GI50 (NCI-H522 lung): 919 nM
TGI (NCI-H522 lung): 4610 nM
GI50 (NCI/ADR-RES ovarian): 2070 nM
TGI (NCI/ADR-RES ovarian): 18500 nM
GI50 (OVCAR-3 ovarian): 696 nM
TGI (OVCAR-3 ovarian): 2840 nM
GI50 (OVCAR-4 ovarian): 2800 nM
TGI (OVCAR-4 ovarian): > 30300 nM
GI50 (OVCAR-5 ovarian): 912 nM
TGI (OVCAR-5 ovarian): 6260 nM
GI50 (OVCAR-8 ovarian): 989 nM
TGI (OVCAR-8 ovarian): 6580 nM
GI50 (PC-3 prostate): 1720 nM
TGI (PC-3 prostate): > 30300 nM
GI50 (RPMI-8226 leukemia): 988 nM
TGI (RPMI-8226 leukemia): > 30300 nM
GI50 (SF-268 CNS): 1480 nM
TGI (SF-268 CNS): 8210 nM
GI50 (SF-295 CNS): 1070 nM
TGI (SF-295 CNS): 3410 nM
GI50 (SF-539 CNS): 2050 nM
TGI (SF-539 CNS): > 30300 nM
GI50 (SK-MEL-2 melanoma): 1060 nM
TGI (SK-MEL-2 melanoma): 5200 nM
GI50 (SK-MEL-28 melanoma): 1160 nM
TGI (SK-MEL-28 melanoma): 7950 nM
GI50 (SK-MEL-5 melanoma): 1420 nM
TGI (SK-MEL-5 melanoma): 4870 nM
GI50 (SK-OV-3 ovarian): 860 nM
TGI (SK-OV-3 ovarian): 2310 nM
GI50 (SN12C renal): 2310 nM
TGI (SN12C renal): 19000 nM
GI50 (SNB-19 CNS): 2470 nM
TGI (SNB-19 CNS): 14700 nM
GI50 (SNB-75 CNS): 912 nM
TGI (SNB-75 CNS): > 30300 nM
GI50 (SR leukemia): 738 nM
TGI (SR leukemia): > 30300 nM
GI50 (SW-620 colon): 531 nM
TGI (SW-620 colon): 1850 nM
GI50 (T-47D breast): 879 nM
TGI (T-47D breast): 3020 nM
GI50 (TK-10 renal): 736 nM
TGI (TK-10 renal): > 30300 nM
GI50 (U251 CNS): 1040 nM
TGI (U251 CNS): 5270 nM
GI50 (UACC-257 melanoma): 1490 nM
TGI (UACC-257 melanoma): 26800 nM
GI50 (UACC-62 melanoma): 828 nM
TGI (UACC-62 melanoma): 3410 nM
GI50 (UO-31 renal): 1120 nM
TGI (UO-31 renal): 5700 nM
